Measured values reported in patent publication US10689378B2, “Triazolopyridine compounds and uses thereof” (Novartis AG, priority 2016, dated 2020).

Legend:
[1] = molecular target: wild type PRC2 (wtPRC2) complex (Homo sapiens, UniProt O75530); test: EED LC-MS assay (SAH production by PRC2); type: biochemical; conditions: read-out: (b) IC50, EED LC-MS Qualified
Description: Compounds of the present invention were assessed for their ability to inhibit PRC2 activity in a pentameric complex of EZH2, SUZ12, EED, Rbap48 and AEBP in biochemical assays. The ability of compounds of the present invention to inhibit cellular activity of PRC2 was assessed by analysing histone H3 lysine 27 methylation in human cell lines. The ability of compounds of the present invention to inhibit cancers was derived from their ability to modulate activity in human cancer cell lines bearing specific dependence to PRC2 activity to maintain cancerous growth.
Representative compounds of the present invention were serially and separately diluted 3-fold in DMSO to obtain a total of eight or twelve concentrations. Then the test compounds at each concentration (120 nL of each) were transferred by Mosquito into a 384-well Perkin Elmer ProxiPlate 384 plus plates. Solutions (6 μL) of 24 nM the wild type PRC2 (wtPRC2) complex and 2 μM SAM in reaction buffer (20 mM Tris, pH 8.0, 0.1% BSA, 0.01% Triton, 0.5 mM DTT) were added to the wells that were then incubated with the test compound for 20 min. A 6 μL solution of 3 μM of the peptide substrate H3K27Me0 (histone H3[21-44]-biotin) in reaction buffer was added to initiate each reaction. The final components in the reaction solution include 12 nM wtPRC2 complex, 1 μM SAM, and 1.5 μM H3K27me0 peptide with varying concentration of the compounds. A positive control consisted of the enzyme, 1 μM SAM and 1.5 μM substrate in the absence of the test compound, and a negative control consisted of 1 μM SAM and 1.5 μM substrate only. Each reaction was incubated at rt for 120 min, then stopped by addition of 3 μL per of quench solution (2.5% TFA with 320 nM d4-SAH). The reaction mixture was centrifuged (Eppendorf centrifuge 5810, Rotor A-4-62) for 2 min at 2000 rpm and read on an API 4000 triple quadrupole mass spec with Turbulon Spray (Applied Biosystem) coupled with Prominence UFLC (Shimadzu). The levels of SAH production were then normalized based on the values coming from the positive and negative controls to give percent enzyme activities. The data were then fit to a dose response equation using the program Helios to get the IC50 values of the test compound.

[2] = tested on: H3K27 methylation in G401 cell; test: ELISA (H3K27 methylation) assay in G401 cells; type: cell-based, human; conditions: Homo sapiens, G-401, read-out: (c) IC50, ELISA Qualified
Summary of the method: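 IC50 from dose-response fit of percent inhibition relative to DMSO, using H3K27me3/me2 ELISA signal (ECL) normalized to histone H3. Histones HCl-extracted after 48 h compound exposure of G401 cells at up to 20 μM, 8- or 12-point 3-fold series.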

[3] = molecular target: T1, EED (1-441)-His protein (Homo sapiens, UniProt O75530); test: EED-H3K27Me3 peptide competition binding assay by AlphaScreen; conditions: read-out: (a) IC50, EED Alphascreen binding Qualified
T1 construct: 30 nM EED (1-441)-His protein
Summary of the method: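 Serially diluted compound (12 points, 3-fold) incubated 20 min with 30 nM EED(1-441)-His and 15 nM biotin-H3K27Me3(19-33) peptide in 25 mM HEPES pH 8, 0.02% Tween-20, 0.5% BSA. Ni-chelate acceptor/streptavidin donor beads (10 μg/mL each) added, 1 h rt dark; 615 nm emission normalized to controls, dose-response fit for IC50.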

wild type PRC2 (wtPRC2) complex, sequence (O75530 whole entry): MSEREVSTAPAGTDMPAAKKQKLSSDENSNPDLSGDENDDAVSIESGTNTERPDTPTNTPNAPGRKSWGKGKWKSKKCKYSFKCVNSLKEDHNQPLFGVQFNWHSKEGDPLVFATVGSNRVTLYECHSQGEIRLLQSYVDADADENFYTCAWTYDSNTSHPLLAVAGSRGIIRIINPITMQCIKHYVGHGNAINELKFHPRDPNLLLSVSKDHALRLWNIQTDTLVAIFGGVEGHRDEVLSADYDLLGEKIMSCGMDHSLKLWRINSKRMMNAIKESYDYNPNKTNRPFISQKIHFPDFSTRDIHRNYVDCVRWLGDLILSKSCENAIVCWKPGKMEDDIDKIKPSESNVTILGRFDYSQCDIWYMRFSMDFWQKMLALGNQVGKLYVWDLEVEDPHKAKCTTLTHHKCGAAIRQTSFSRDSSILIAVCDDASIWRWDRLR
wild type PRC2 (wtPRC2) complex, sequence (Q15910 whole entry partner): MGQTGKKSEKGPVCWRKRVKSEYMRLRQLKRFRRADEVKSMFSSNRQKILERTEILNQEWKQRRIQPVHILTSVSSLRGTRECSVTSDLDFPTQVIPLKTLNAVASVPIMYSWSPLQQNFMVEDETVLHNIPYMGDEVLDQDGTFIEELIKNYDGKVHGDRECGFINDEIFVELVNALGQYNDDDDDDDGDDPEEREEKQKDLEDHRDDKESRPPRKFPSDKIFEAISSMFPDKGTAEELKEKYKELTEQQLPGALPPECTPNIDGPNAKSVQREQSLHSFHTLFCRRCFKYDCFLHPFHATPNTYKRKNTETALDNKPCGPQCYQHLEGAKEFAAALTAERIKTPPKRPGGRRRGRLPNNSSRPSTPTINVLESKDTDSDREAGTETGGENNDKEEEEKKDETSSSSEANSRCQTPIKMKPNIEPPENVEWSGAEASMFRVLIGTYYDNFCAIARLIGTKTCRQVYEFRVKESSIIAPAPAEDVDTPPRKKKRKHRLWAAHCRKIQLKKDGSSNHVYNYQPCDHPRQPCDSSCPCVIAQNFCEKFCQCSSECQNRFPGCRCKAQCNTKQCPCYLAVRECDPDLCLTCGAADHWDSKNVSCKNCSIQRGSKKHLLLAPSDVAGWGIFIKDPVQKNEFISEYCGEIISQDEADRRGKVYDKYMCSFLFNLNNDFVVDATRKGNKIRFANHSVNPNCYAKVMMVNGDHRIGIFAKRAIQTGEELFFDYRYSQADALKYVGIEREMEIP
wild type PRC2 (wtPRC2) complex, sequence (Q15022 whole entry partner): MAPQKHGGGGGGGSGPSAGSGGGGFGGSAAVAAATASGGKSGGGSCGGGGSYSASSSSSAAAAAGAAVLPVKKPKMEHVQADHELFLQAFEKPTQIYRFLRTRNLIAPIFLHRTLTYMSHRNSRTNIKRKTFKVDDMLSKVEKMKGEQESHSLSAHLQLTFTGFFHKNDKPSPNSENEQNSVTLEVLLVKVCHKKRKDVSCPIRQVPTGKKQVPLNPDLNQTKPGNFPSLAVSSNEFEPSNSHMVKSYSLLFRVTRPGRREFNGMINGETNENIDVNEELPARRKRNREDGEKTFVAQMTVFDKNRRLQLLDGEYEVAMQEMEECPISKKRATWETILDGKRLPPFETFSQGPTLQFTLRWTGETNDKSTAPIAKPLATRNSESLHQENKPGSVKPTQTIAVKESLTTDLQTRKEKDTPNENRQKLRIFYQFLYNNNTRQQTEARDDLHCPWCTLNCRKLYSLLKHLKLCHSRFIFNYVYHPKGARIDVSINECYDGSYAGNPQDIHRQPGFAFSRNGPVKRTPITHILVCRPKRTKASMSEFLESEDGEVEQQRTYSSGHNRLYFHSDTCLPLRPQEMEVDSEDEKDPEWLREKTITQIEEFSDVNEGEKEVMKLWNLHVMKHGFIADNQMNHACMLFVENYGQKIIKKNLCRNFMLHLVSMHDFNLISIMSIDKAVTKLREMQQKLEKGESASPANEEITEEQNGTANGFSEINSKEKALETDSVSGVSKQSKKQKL
wild type PRC2 (wtPRC2) complex, sequence (Q09028 whole entry partner): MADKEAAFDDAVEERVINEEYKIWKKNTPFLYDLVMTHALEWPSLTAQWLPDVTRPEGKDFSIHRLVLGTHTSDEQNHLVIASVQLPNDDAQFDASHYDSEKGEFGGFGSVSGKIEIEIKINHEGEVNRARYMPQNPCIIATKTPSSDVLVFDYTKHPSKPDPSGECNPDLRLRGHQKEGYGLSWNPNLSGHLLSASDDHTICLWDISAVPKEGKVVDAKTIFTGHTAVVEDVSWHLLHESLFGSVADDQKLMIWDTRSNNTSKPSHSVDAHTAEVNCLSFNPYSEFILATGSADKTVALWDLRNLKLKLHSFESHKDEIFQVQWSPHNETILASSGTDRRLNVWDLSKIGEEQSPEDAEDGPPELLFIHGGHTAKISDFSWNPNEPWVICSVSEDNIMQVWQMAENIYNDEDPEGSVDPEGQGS
wild type PRC2 (wtPRC2) complex, sequence (Q6ZN18 whole entry partner): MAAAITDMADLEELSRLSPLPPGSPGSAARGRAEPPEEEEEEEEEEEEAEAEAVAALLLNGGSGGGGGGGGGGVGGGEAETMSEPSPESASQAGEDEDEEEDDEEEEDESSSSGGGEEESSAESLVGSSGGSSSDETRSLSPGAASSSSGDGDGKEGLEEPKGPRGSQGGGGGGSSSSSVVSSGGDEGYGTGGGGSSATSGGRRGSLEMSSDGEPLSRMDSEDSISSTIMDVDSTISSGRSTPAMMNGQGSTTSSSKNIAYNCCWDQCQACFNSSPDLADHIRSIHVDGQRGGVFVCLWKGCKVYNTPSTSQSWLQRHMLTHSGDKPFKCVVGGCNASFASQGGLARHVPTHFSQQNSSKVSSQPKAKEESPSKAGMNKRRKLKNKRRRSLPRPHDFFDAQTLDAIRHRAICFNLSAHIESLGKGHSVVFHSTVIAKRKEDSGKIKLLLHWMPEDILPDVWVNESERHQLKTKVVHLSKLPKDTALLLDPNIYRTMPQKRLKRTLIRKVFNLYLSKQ
T1 sequence (O75530 whole entry): as the sequence (O75530 whole entry) above

Row | Compound | IC50 [1] [nM] | IC50 [2] [nM] | IC50 [3] [nM]
1 | COc1ccccc1CNc1ccc(-c2ccc(CN(C)C)cc2F)c2nncn12 [Example 70, 8-(4-((dimethylamino)methyl)-2-fluorophenyl)-N-(2-methoxybenzyl)-[1,2,4] triazolo[4,3-a]pyridin-5-amine] | 188 | 334 | 37.6
2 | COc1ccccc1CNc1ccc(-c2ccc(C(=O)N(C)C)cc2F)c2nncn12 [Example 71, 3-fluoro-4-(5-((2-methoxybenzyl)amino)-[1,2,4]triazolo[4,3-a]pyridin-8-yl)-N,N-dimethylbenzamide] | 275 | 43.4 | 34.9
3 | COc1ccccc1CNc1ccc(-c2ccc(C(N)=O)cc2)c2nncn12 [Example 72, 4-(5-((2-methoxybenzyl)amino)-[1,2,4]triazolo[4,3-a]pyridin-8-yl)benzamide] | 1010 | 43.3 | 12.9
4 | COc1ccccc1CNc1ccc(-c2ccc(S(N)(=O)=O)cc2)c2nncn12 [Example 73, 4-(5-((2-methoxybenzyl)amino)-[1,2,4]triazolo[4,3-a]pyridin-8-yl)benzene sulfonamide] | 236 | 397 | 45.2
5 | COc1ccccc1CNc1ccc(-c2ccc(Cn3ccnc3)cc2)c2nncn12 [Example 76, 8-(4-((1H-imidazol-1-yl)methyl)phenyl)-N-(2-methoxybenzyl)-[1,2,4] triazolo[4,3-a]pyridin-5-amine] | 420 | 133 | 41.9
6 | COc1ccccc1CNc1ccc(-c2ccc(N3CCN(C(C)C)CC3)cc2)c2nncn12 [Example 77, 8-(4-(4-isopropylpiperazin-1-yl)phenyl)-N-(2-methoxybenzyl)-[1,2,4]triazolo[4,3-a] pyridin-5-amine] | 106 | 21.7 | 14.6
7 | COc1cccc(F)c1CNc1ccc(-c2ccc(S(C)(=O)=O)cc2)c2nncn12 [Example 78, N-(2-fluoro-6-methoxybenzyl)-8-(4-(methylsulfonyl)phenyl)-[1,2,4]triazolo[4,3-a]pyridin-5-amine] | 75.1 | 26.1 | 18
8 | COc1ccccc1CNc1ccc(-c2ccc(NS(C)(=O)=O)cc2)c2nncn12 [Example 82, N-(4-(5-((2-methoxybenzyl)amino)-[1,2,4]triazolo[4,3-a]pyridin-8-yl)phenyl) methanesulfonamide] | 509 | 330 | 80.3
9 | COc1cc(F)ccc1CNc1ccc(-c2ccc(S(C)(=O)=O)cc2)c2nncn12 [Example 83, N-(4-fluoro-2-methoxybenzyl)-8-(4-(methylsulfonyl)phenyl)-[1,2,4]triazolo[4,3-a]pyridin-5-amine] | 491 | 815 | 55.7
10 | COc1ccccc1CNc1ccc(-c2ccc(N3CCN(C(C)C)CC3)nc2)c2nncn12 [Example 87, 8-(6-(4-isopropylpiperazin-1-yl)pyridin-3-yl)-N-(2-methoxybenzyl)-[1,2,4] triazolo[4,3-a]pyridin-5-amine] | 239 | 90.1 | 39.2
11 | COc1ccccc1CNc1ccc(-c2ccnc(C)c2)c2nncn12 [Example 91, N-(2-methoxybenzyl)-8-(2-methylpyridin-4-yl)-[1,2,4] triazolo[4,3-a]pyridin-5-amine] | 278 | 60.8 | 37.5
12 | COc1ccccc1CNc1ccc(-c2cccc(CCN(C)C)c2)c2nncn12 [Example 94, 8-(3-(2-(dimethylamino)ethyl)phenyl)-N-(2-methoxybenzyl)-[1,2,4]triazolo[4,3-a] pyridin-5-amine] | 62.3 | 41.1 | 26.5
13 | COc1cccc(F)c1CNc1ccc(-c2ccc(S(N)(=O)=O)cc2)c2nncn12 [Example 100, 4-(5-((2-fluoro-6-methoxybenzyl)amino)-[1,2,4]triazolo[4,3-a]pyridin-8-yl)benzenesulfonamide] | 139 | 40 | 12.4
14 | COc1ccccc1CNc1ccc(-c2ccc(S(=O)(=O)NCCO)cc2)c2nncn12 [Example 101, N-(2-hydroxyethyl)-4-(5-((2-methoxybenzyl)amino)-[1,2,4]triazolo[4,3-a]pyridin-8-yl)benzenesulfonamide] | 2580 | 102 | 50.1
15 | COc1ccccc1CNc1ccc(-c2ccc([S+](C)[O-])cc2)c2nncn12 (stereo not drawn) [Example 102, N-(2-methoxybenzyl)-8-(4-(methylsulfinyl)phenyl)-[1,2,4]triazolo[4,3-a]pyridin-5-amine] | 1460 | 68.9 | 61.9
16 | COc1cccc(F)c1CNc1ccc(-c2ccc(NS(C)(=O)=O)cc2)c2nncn12 [Example 105, N-(4-(5-((2-fluoro-6-methoxybenzyl)amino)-[1,2,4]triazolo[4,3-a]pyridin-8-yl)phenyl)methane sulfonamide] | 281 | 43.3 | 21.5
17 | COc1cccc(F)c1CNc1ccc(-c2ccc(NS(C)(=O)=O)c(F)c2)c2nncn12 [Example 106, N-(2-fluoro-4-(5-((2-fluoro-6-methoxybenzyl)amino)-[1,2,4]triazolo[4,3-a]pyridin-8-yl)phenyl) methanesulfonamide] | 454 | 53 | 46.8
18 | COc1cccc(F)c1CNc1ccc(-c2ccc(C(=O)N3CCCC3)cc2)c2nncn12 [Example 107, (4-(5-((2-fluoro-6-methoxy benzyl)amino)-[1,2,4]triazolo[4,3-a]pyridin-8-yl)phenyl)(pyrrolidin-1-yl) methanone] | 108 | 12.6 | 21.4
19 | COc1cccc(F)c1CNc1ccc(-c2cnc(N3CCN(C(C)C)CC3)c(C(F)(F)F)c2)c2nncn12 [Example 108, N-(2-fluoro-6-methoxybenzyl)-8-(6-(4-isopropylpiperazin-1-yl)-5-(trifluoromethyl)pyridin-3-yl)-[1,2,4]triazolo[4,3-a] pyridin-5-amine] | 350 | 191 | 70.8
20 | COc1cccc(F)c1CNc1ccc(-c2cnc(N3CCN(C(C)C)CC3)c(Cl)c2)c2nncn12 [Example 109, 8-(5-chloro-6-(4-isopropylpiperazin-1-yl)pyridin-3-yl)-N-(2-fluoro-6-methoxybenzyl)-[1,2,4] triazolo[4,3-a]pyridin-5-amine] | 299 | 103 | 27.1
21 | COc1ccccc1CNc1ccc(-c2ccc(C)nc2)c2nncn12 [Example 111, N-(2-methoxybenzyl)-8-(6-methylpyridin-3-yl)-[1,2,4] triazolo[4,3-a]pyridin-5-amine] | 405 | 56.7 | 76.5
22 | COc1cccc(F)c1CNc1ccc(-c2ccc(S(C)(=O)=O)nc2)c2nncn12 [Example 112, N-(2-fluoro-6-methoxybenzyl)-8-(6-(methylsulfonyl)pyridin-3-yl)-[1,2,4]triazolo[4,3-a] pyridin-5-amine] | 256 | 4.9 | 9.8
23 | COc1cccc(F)c1CNc1ccc(-c2ccncc2)c2nncn12 [Example 113, N-(2-fluoro-6-methoxybenzyl)-8-(pyridin-4-yl)-[1,2,4]triazolo[4,3-a]pyridin-5-amine] | 117 | 27.4 | 38.7
24 | COc1cccc(F)c1CNc1ccc(-c2cccnc2)c2nncn12 [Example 114, N-(2-fluoro-6-methoxybenzyl)-8-(pyridin-3-yl)-[1,2,4]triazolo[4,3-a]pyridin-5-amine] | 90.6 | 9.5 | 16
25 | COc1ccccc1CNc1ccc(-c2ccc(CCN(C)C)cc2)c2nncn12 [Example 123, 8-(4-(2-(dimethylamino)ethyl)phenyl)-N-(2-methoxybenzyl)-[1,2,4]triazolo[4,3-a] pyridin-5-amine] | 368 | 99.4 | 42
